Tests used:
[1] = test system: SOD1 G93A mouse model of ALS; experiment: Survival (age at death) in SOD1 G93A mouse model of ALS; type: in vivo; settings: presymptomatic from d50, 10 mg/kg body weight, male and female
Text: High-copy B6SJL-Tg(SOD1*G93A)1Gur/J were obtained from Jackson Labs (Stock Number 002726; Bar Harbor, USA) that had originally been produced by Gurney et al. (Gurney, Pu et al. 1994). The colony was maintained by crossing C57BL/6 males harboring the transgene with wild-type SJL females. To verify presence of the transgene in the F1 progeny, tail biopsies were collected from 14-day-old pups and genotyped using PCR. At the age of 35-45 days mice were moved to the testing facility to acclimate to the new environment with a 12-h light/dark cycle before being assigned to a study.
At 50 days (presymptomatic, d50) or 80 days of age (symptomatic, d80) mice were separated into Fasudil-30 (Fas30)- and Fasudil-100 (Fas100)-Treatment or Vehicle Control (Veh) groups. Prior to any treatment, groups were constituted so as to minimize between-group variability by using the following criteria. Groups were balanced with respect to gender and body weight within gender. In addition, groups were age-matched and littermate-matched. […] The study was observer-blinded.
To reach sufficient CSF levels of Fasudil the inventors administered Fasudil (LC Labs, Woburn, USA; product number F-4660) at a low concentration of […] (Fas30) or at a high concentration of 50 mg (Fas100) in 100 ml drinking water. Control groups received the respective amount of isotonic drinking water termed as vehicle (Veh).
Chronic oral treatment with a low dose of Fasudil (F30) or a high dose of Fasudil (F100) was started either presymptomatically at day 50 or symptomatically at day 80 and continued until death.
Survival. Date and cause of death were recorded for each mouse. For humane reasons, animals are closely monitored and sacrificed as moribund prior to actual death using criteria for severe moribundity. To determine duration of survival reliably and humanely, the moribund state, defined as the inability of mice to right themselves 30 seconds after being placed on a side (a neurological score of 4) was used. The moribund mice were scored as “dead”, and were euthanized using carbon dioxide.
The data were then analyzed using Kaplan-Meier survival fit analysis with the Log-Rank and Wilcoxon tests for statistical significance. Cox proportional hazards analysis was also performed to determine hazard ratios and test for statistical significance of their differences using the Effect Likelihood Chi Square test. Statistical analyses were performed using Statistica 9.1 (StatSoft, Hamburg, Germany). P-values less than 0.05 were taken to be statistically significant.
The criteria to terminate the therapy study (later referred to as time of death) were fulfilled if the animals had reached the terminal neurological scoring or had lost a defined percentage of the maximal body weight. This time point then reflects the survival time of the animals whereas disease duration was measured from onset of disease until time of death.

[2] = test system: regenerating axons after optic nerve crush lesion; settings: high intravitreal dose 40 μmol/l in comparison to medium dose 400 nmol/l; cited from earlier work

Compound | survival [1] | number of regenerating axons after optic nerve crush lesion [2]
C[C@@H](N)[C@H]1CC[C@H](C(=O)Nc2ccncc2)CC1 [Y-27632] | no significant effects | –
Cc1cncc2cccc(S(=O)(=O)N3CCCNC[C@@H]3C)c12 [dimethyl-fasudil, (S)-(+)-2-Methyl-1-[(4-methyl-5-isoquinolinyl)sulfonyl]-hexahydro-1H-1,4-diazepine] | – | significantly reduced
